Molecular target: T1, F508del (Homo sapiens, UniProt P13569, DEL508-508)
T1 construct: expressed in transfected cells
Assay: Protocol 1: membrane potential optical assay (FLIPR III, voltage sensing dye), identification of potentiator compounds
Assay type: cell-based
Details: Table 3, compounds of Table 1
Summary of the method: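 NIH3T3 F508del cells, 27° C × 24 hrs; compound/DMSO pretreat → redistribution dye load → single forskolin addition with Cl⁻ gradient (gluconate-substituted bath, HEPES pH 7.4). FLIPR III membrane-potential fluorescence read.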

T1 sequence (P13569 with tags, fused parts or gaps DEL508-508): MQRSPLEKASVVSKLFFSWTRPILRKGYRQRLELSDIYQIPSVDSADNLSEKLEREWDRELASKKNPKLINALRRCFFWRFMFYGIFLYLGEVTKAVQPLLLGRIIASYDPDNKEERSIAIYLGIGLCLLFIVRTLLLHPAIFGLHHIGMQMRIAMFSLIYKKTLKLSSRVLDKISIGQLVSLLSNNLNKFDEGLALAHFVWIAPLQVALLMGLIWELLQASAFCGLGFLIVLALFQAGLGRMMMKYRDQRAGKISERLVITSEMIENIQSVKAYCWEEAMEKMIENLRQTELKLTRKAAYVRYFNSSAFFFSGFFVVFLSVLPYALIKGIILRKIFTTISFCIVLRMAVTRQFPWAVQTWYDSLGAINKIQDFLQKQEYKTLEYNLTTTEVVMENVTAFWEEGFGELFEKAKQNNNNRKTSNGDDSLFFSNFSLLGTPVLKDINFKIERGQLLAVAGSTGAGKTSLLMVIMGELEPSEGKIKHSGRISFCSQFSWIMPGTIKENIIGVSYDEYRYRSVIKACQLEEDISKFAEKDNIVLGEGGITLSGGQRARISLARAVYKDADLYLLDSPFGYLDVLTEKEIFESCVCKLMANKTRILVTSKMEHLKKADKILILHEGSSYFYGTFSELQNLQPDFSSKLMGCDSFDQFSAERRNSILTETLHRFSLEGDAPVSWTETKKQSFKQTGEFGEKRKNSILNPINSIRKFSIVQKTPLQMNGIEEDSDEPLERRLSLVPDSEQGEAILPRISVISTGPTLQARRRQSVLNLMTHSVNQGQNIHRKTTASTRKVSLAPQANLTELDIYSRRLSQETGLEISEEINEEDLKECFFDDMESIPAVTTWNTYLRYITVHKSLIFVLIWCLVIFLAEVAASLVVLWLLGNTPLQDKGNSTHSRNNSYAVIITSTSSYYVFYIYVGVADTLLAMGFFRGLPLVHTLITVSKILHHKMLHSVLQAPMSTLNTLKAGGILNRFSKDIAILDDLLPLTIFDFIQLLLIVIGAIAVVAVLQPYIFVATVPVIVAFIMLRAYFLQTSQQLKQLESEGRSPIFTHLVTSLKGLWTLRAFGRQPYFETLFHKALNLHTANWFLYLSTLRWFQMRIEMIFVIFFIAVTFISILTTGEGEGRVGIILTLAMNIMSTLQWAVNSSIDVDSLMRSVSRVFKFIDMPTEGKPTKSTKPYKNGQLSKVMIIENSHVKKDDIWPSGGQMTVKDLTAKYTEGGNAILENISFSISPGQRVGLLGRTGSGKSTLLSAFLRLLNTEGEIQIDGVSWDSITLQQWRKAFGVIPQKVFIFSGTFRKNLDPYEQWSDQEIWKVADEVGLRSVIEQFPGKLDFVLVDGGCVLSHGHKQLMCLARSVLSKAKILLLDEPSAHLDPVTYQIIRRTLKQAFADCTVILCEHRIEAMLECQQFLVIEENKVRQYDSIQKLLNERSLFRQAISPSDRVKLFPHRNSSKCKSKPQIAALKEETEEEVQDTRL

| SMILES | EC30 |
| --- | --- |
| CC(C)Cn1cc(-c2ccc(C(=O)NS(=O)(=O)c3nccnc3N)c(N3CCC(C)CC3)n2)cn1 [Compound 1288, N-(3-aminopyrazin-2-yl)sulfonyl-6-(1-isobutylpyrazol-4-yl)-2-(4-methyl-1-piperidyl)pyridine-3-carboxamide] | ++ (“++” means between 3 uM and 10 uM) |
| CC(C)COc1cc(F)cc(-c2ccc(C(=O)NS(=O)(=O)c3cccc(N)n3)c(N3C[C@H](C)CC3(C)C)n2)c1 [Compound 1289, N-[(6-amino-2-pyridyl)sulfonyl]-6-(3-fluoro-5-isobutoxy-phenyl)-2-[(4R)-2,2,4-trimethylpyrrolidin-1-yl]pyridine-3-carboxamide] | +++ (“+++” means <3 uM) |
| Cc1ccc(-c2ccc(C(=O)NS(=O)(=O)c3cccc(N)n3)c(Oc3c(C)cc(C)cc3C)n2)nc1 [Compound 1290, N-[(6-amino-2-pyridyl)sulfonyl]-6-(5-methyl-2-pyridyl)-2-(2,4,6-trimethylphenoxy)pyridine-3-carboxamide] | +++ (“+++” means <3 uM) |
| Cc1cccc(C)c1Cn1c(C(=O)NS(=O)(=O)c2ccccc2)cc2cccnc21 [Compound 1291, N-(benzenesulfonyl)-1-[(2,6-dimethylphenyl)methyl]pyrrolo[2,3-b]pyridine-2-carboxamide] | ++ (“++” means between 3 uM and 10 uM) |
| Cc1ccc(-c2nc3c(cc2C(=O)NS(=O)(=O)c2ccn[nH]2)CCCC3(C)C)cc1 [Compound 1292, 8,8-dimethyl-2-(p-tolyl)-N-(1H-pyrazol-5-ylsulfonyl)-6,7-dihydro-5H-quinoline-3-carboxamide] | + (“+” means greater than 10 uM) |
| CCCOc1cc(-c2ccc(C(=O)NS(=O)(=O)c3ccc[nH]c3=O)c(N3[C@H](C)CC[C@@H]3C)n2)ccc1Cl [Compound 1293, 6-(4-chloro-3-propoxy-phenyl)-2-[(2R,5S)-2,5-dimethylpyrrolidin-1-yl]-N-[(2-oxo-1H-pyridin-3-yl)sulfonyl]pyridine-3-carboxamide] | ++ (“++” means between 3 uM and 10 uM) |
| Cc1cc(C)c(Oc2nc(C(C)(C)C)ccc2C(=O)NS(=O)(=O)c2csc(N)n2)c(C)c1 [Compound 1294, N-(2-aminothiazol-4-yl)sulfonyl-6-tert-butyl-2-(2,4,6-trimethylphenoxy)pyridine-3-carboxamide] | +++ (“+++” means <3 uM) |
| Cc1cc(C)c(Oc2nc(-c3cccc(Cl)c3)ccc2C(=O)NS(=O)(=O)c2cccc(N)n2)c(C)c1 [Compound 1295, N-[(6-amino-2-pyridyl)sulfonyl]-6-(3-chlorophenyl)-2-(2,4,6-trimethylphenoxy)pyridine-3-carboxamide] | +++ (“+++” means <3 uM) |
| Cc1cc(C)c(Oc2nc(-c3cccc(F)c3F)ccc2C(=O)NS(=O)(=O)c2ccc[nH]c2=O)c(C)c1 [Compound 1296, 6-(2,3-difluorophenyl)-N-[(2-oxo-1H-pyridin-3-yl)sulfonyl]-2-(2,4,6-trimethylphenoxy)pyridine-3-carboxamide] | + (“+” means greater than 10 uM) |
| Cc1cc(C)c(Oc2nc(C3(C)CC3)ccc2C(=O)NS(=O)(=O)c2ccc(N)cc2)c(C)c1 [Compound 1297, N-(4-aminophenyl)sulfonyl-6-(1-methylcyclopropyl)-2-(2,4,6-trimethylphenoxy)pyridine-3-carboxamide] | +++ (“+++” means <3 uM) |
| COC1CCN(c2nc(C(C)(C)C)ccc2C(=O)NS(=O)(=O)c2ccc(N)cc2)CC1 [Compound 1298, N-(4-aminophenyl)sulfonyl-6-tert-butyl-2-(4-methoxy-1-piperidyl)pyridine-3-carboxamide] | ++ (“++” means between 3 uM and 10 uM) |
| Cc1cc(C)c(Oc2nc(-c3ccc4cn(C)nc4c3)ccc2C(=O)NS(=O)(=O)c2cccc(N)n2)c(C)c1 [Compound 1299, N-[(6-amino-2-pyridyl)sulfonyl]-6-(2-methylindazol-6-yl)-2-(2,4,6-trimethylphenoxy)pyridine-3-carboxamide] | ++ (“++” means between 3 uM and 10 uM) |
| Cc1ccc(-c2ccc(C(=O)NS(=O)(=O)c3ccc[nH]c3=O)c(Oc3c(C)cc(C)cc3C)n2)cc1 [Compound 1300, N-[(2-oxo-1H-pyridin-3-yl)sulfonyl]-6-(p-tolyl)-2-(2,4,6-trimethylphenoxy)pyridine-3-carboxamide] | +++ (“+++” means <3 uM) |
| CCOc1ccc(F)c(-c2ccc(C(=O)NS(=O)(=O)c3ccc[nH]c3=O)c(Oc3c(C)cc(C)cc3C)n2)c1 [Compound 1301, 6-(5-ethoxy-2-fluoro-phenyl)-N-[(2-oxo-1H-pyridin-3-yl)sulfonyl]-2-(2,4,6-trimethylphenoxy)pyridine-3-carboxamide] | ++ (“++” means between 3 uM and 10 uM) |
| CC(C)COc1cc(F)cc(-c2ccc(C(=O)NS(=O)(=O)c3ccn[nH]3)c(N3CCCC3(C)C)n2)c1 [Compound 1302, 2-(2,2-dimethylpyrrolidin-1-yl)-6-(3-fluoro-5-isobutoxy-phenyl)-N-(1H-pyrazol-5-ylsulfonyl)pyridine-3-carboxamide] | ++ (“++” means between 3 uM and 10 uM) |
| CC(C)COc1cc(F)cc(-c2ccc(C(=O)NS(=O)(=O)c3cccc(N)n3)c(N3CCC4(CCC4)CC3)n2)c1 [Compound 1303, N-[(6-amino-2-pyridyl)sulfonyl]-2-(7-azaspiro[3.5]nonan-7-yl)-6-(3-fluoro-5-isobutoxy-phenyl)pyridine-3-carboxamide] | +++ (“+++” means <3 uM) |
| CC(C)COc1cc(F)cc(-c2ccc(C(=O)NS(=O)(=O)c3cccc(N)n3)c(N3CCC[C@H]3C(F)(F)F)n2)c1 [Compound 1304, N-[(6-amino-2-pyridyl)sulfonyl]-6-(3-fluoro-5-isobutoxy-phenyl)-2-[(2S)-2-(trifluoromethyl)pyrrolidin-1-yl]pyridine-3-carboxamide] | +++ (“+++” means <3 uM) |
| COc1c(C(C)(C)C)nn(Cc2c(C)cc(C)cc2C)c1C(=O)NS(=O)(=O)c1cccc(N)c1 [Compound 1305, N-(3-aminophenyl)sulfonyl-5-tert-butyl-4-methoxy-2-[(2,4,6-trimethylphenyl)methyl]pyrazole-3-carboxamide] | +++ (“+++” means <3 uM) |
| Cc1cc(C)c(Oc2nc(N(C)C)ccc2C(=O)NS(=O)(=O)c2cccc(N)n2)c(C)c1 [Compound 1306, N-[(6-amino-2-pyridyl)sulfonyl]-6-(dimethylamino)-2-(2,4,6-trimethylphenoxy)pyridine-3-carboxamide] | +++ (“+++” means <3 uM) |
| Cc1ccc(-c2nc3c(cc2C(=O)NS(=O)(=O)c2ccc(N)cc2)CCCC3(C)C)cc1 [Compound 1307, N-(4-aminophenyl)sulfonyl-8,8-dimethyl-2-(p-tolyl)-6,7-dihydro-5H-quinoline-3-carboxamide] | ++ (“++” means between 3 uM and 10 uM) |
| CC(C)COc1cc(F)cc(-c2ccc(C(=O)NS(=O)(=O)c3cccc(=O)[nH]3)c(N3CC(C)CC3(C)C)n2)c1 (centres unmarked) [Compound 1308, 6-(3-fluoro-5-isobutoxy-phenyl)-N-[(6-oxo-1H-pyridin-2-yl)sulfonyl]-2-(2,2,4-trimethylpyrrolidin-1-yl)pyridine-3-carboxamide] | +++ (“+++” means <3 uM) |
| CC(C)COc1cc(F)cc(-c2ccc(C(=O)NS(=O)(=O)c3cccc(O)c3)c(N3CCC(C)(C)CC3)n2)c1 [Compound 1309, 2-(4,4-dimethyl-1-piperidyl)-6-(3-fluoro-5-isobutoxy-phenyl)-N-(3-hydroxyphenyl)sulfonyl-pyridine-3-carboxamide] | +++ (“+++” means <3 uM) |
| Cc1cc(C)c(Oc2nc(C3(C)CC3)ccc2C(=O)NS(=O)(=O)c2cccc(N)n2)c(C)c1 [Compound 1310, N-[(6-amino-2-pyridyl)sulfonyl]-6-(1-methylcyclopropyl)-2-(2,4,6-trimethylphenoxy)pyridine-3-carboxamide] | +++ (“+++” means <3 uM) |
| Cc1cc(C)c(Oc2nc(C(C)(C)C)ccc2C(=O)NS(=O)(=O)c2c(C)cc[nH]c2=O)c(C)c1 [Compound 1311, 6-tert-butyl-N-[(4-methyl-2-oxo-1H-pyridin-3-yl)sulfonyl]-2-(2,4,6-trimethylphenoxy)pyridine-3-carboxamide] | +++ (“+++” means <3 uM) |
| CCn1cc(-c2ccc(C(=O)NS(=O)(=O)c3cccc(N)n3)c(Oc3c(C)cc(C)cc3C)n2)cn1 [Compound 1312, N-[(6-amino-2-pyridyl)sulfonyl]-6-(1-ethylpyrazol-4-yl)-2-(2,4,6-trimethylphenoxy)pyridine-3-carboxamide] | ++ (“++” means between 3 uM and 10 uM) |
| CC(C)COc1cc(F)cc(-c2ccc(C(=O)NS(=O)(=O)c3cccc(N)n3)c(N3CCCC4CCCC43)n2)c1 (centres unmarked) [Compound 1313, 2-(2,3,4,4a,5,6,7,7a-octahydrocyclopenta[b]pyridin-1-yl)-N-[(6-amino-2-pyridyl)sulfonyl]-6-(3-fluoro-5-isobutoxy-phenyl)pyridine-3-carboxamide] | +++ (“+++” means <3 uM) |
| CC(Cc1ccccc1)Oc1nc(C(C)(C)C)ccc1C(=O)NS(=O)(=O)c1cccc(N)n1 (centres unmarked) [Compound 1314, N-[(6-amino-2-pyridyl)sulfonyl]-6-tert-butyl-2-(1-methyl-2-phenyl-ethoxy)pyridine-3-carboxamide] | +++ (“+++” means <3 uM) |
| CC(C)COc1cc(F)cc(-c2ccc(C(=O)NS(=O)(=O)c3ccn[nH]3)c(N3CCC(c4ccccc4)CC3)n2)c1 [Compound 1315, 6-(3-fluoro-5-isobutoxy-phenyl)-2-(4-phenyl-1-piperidyl)-N-(1H-pyrazol-5-ylsulfonyl)pyridine-3-carboxamide] | +++ (“+++” means <3 uM) |
| CC(C)Oc1ccc(-c2ccc(C(=O)NS(=O)(=O)c3cccnc3N)c(N3[C@H](C)CC[C@@H]3C)n2)cn1 [Compound 1316, N-[(2-amino-3-pyridyl)sulfonyl]-2-[(2S,5R)-2,5-dimethylpyrrolidin-1-yl]-6-(6-isopropoxy-3-pyridyl)pyridine-3-carboxamide] | +++ (“+++” means <3 uM) |
